Data as given in ChEMBL document CHEMBL5329155, “Synthesis and pharmacological evaluation of 1,3-diaryl substituted pyrazole based (thio)urea derivatives as potent antimicrobial agents against multi-drug resistant Staphylococcus aureus and Mycobacterium tuberculosis” (RSC Med Chem, 2023).
In brackets after ≈: the same amount, converted by molar mass. Activity calls are given as the source filed them. The rule behind the calls is not given here.

Legend:
Staphylococcus aureus [1] = experiment: Antibacterial activity against Staphylococcus aureus ATCC 29213 assessed as inhibition of bacterial growth measured for 18 to 24 hrs by broth dilution method; assay type: functional; details: time 18-24 hrs
[2] = system: Mycobacterium tuberculosis; experiment: Antimycobacterial activity against Mycobacterium tuberculosis H37Rv ATCC 27294 assessed as inhibition of bacterial growth incubated for 18 to 24 hrs by broth dilution method; assay type: functional
[3] = system: Mycolicibacterium fortuitum; experiment: Antimycobacterial activity against Mycobacterium fortuitum assessed as reduction in bacterial growth incubated for 18 to 24 hrs by broth dilution method; assay type: functional; details: time 18-24 hrs
Mycobacteroides chelonae = experiment: Antibacterial activity against Mycobacteroides chelonae assessed as reduction in bacterial growth incubated for 18 to 24 hrs by broth dilution method; assay type: functional; details: time 18-24 hrs
[4] = Cytotoxicity against African green monkey Vero cells assessed as reduction in cell viability incubated for 72 hrs by MTT assay; assay type: toxicity, cell-based; details: chlorocebus sabaeus
[5] = Selectivity index, ratio of CC50 for cytotoxicity against African green monkey Vero cells assessed as reduction in cell viability to MIC for antibacterial activity against Mycobacterium tuberculosis H37Rv ATCC 27294 assessed as inhibition of bacterial growth; assay type: toxicity, cell-based; details: read-out: Selectivity Index
[6] = Selectivity index, ratio of CC50 for cytotoxicity against African green monkey Vero cells assessed as reduction in cell viability to MIC for antibacterial activity against Staphylococcus aureus ATCC 29213 assessed as inhibition of bacterial growth; assay type: toxicity, cell-based; details: read-out: Selectivity Index
Staphylococcus aureus [7] = experiment: Antibacterial activity against methicillin-susceptible Staphylococcus aureus assessed as reduction in bacterial growth incubated for 18 to 24 hrs by broth dilution method; assay type: functional; details: time 18-24 hrs
Staphylococcus aureus [8] = experiment: Antibacterial activity against methicillin/ceftriaxone/meropenem/gentamycin/linezolid resistant Staphylococcus aureus NRS 100 assessed as reduction in bacterial growth incubated for 18 to 24 hrs by broth dilution method; assay type: functional; details: time 18-24 hrs
Staphylococcus aureus [9] = experiment: Antibacterial activity against methicillin/ceftriaxone/meropenem/gentamycin/linezolid resistant Staphylococcus aureus NRS 119 assessed as reduction in bacterial growth incubated for 18 to 24 hrs by broth dilution method; assay type: functional; details: time 18-24 hrs
Staphylococcus aureus [10] = experiment: Antibacterial activity against methicillin/ceftriaxone/meropenem resistant Staphylococcus aureus NRS 129 assessed as reduction in bacterial growth incubated for 18 to 24 hrs by broth dilution method; assay type: functional; details: time 18-24 hrs
Staphylococcus aureus [11] = experiment: Antibacterial activity against methicillin/ceftriaxone/meropenem resistant Staphylococcus aureus NRS 186 assessed as reduction in bacterial growth incubated for 18 to 24 hrs by broth dilution method; assay type: functional; details: time 18-24 hrs
Staphylococcus aureus [12] = experiment: Antibacterial activity against methicillin/ceftriaxone/meropenem resistant Staphylococcus aureus NRS 191 assessed as reduction in bacterial growth incubated for 18 to 24 hrs by broth dilution method; assay type: functional; details: time 18-24 hrs
Staphylococcus aureus [13] = experiment: Antibacterial activity against methicillin/ceftriaxone/meropenem resistant Staphylococcus aureus NRS 192 assessed as reduction in bacterial growth incubated for 18 to 24 hrs by broth dilution method; assay type: functional; details: time 18-24 hrs
Staphylococcus aureus [14] = experiment: Antibacterial activity against methicillin/ceftriaxone/meropenem resistant Staphylococcus aureus NRS 193 assessed as reduction in bacterial growth incubated for 18 to 24 hrs by broth dilution method; assay type: functional; details: time 18-24 hrs
Staphylococcus aureus [15] = experiment: Antibacterial activity against methicillin/ceftriaxone resistant Staphylococcus aureus NRS 194 assessed as reduction in bacterial growth incubated for 18 to 24 hrs by broth dilution method; assay type: functional; details: time 18-24 hrs
Staphylococcus aureus [16] = experiment: Antibacterial activity against methicillin/ceftriaxone/meropenem resistant Staphylococcus aureus NRS 198 assessed as reduction in bacterial growth incubated for 18 to 24 hrs by broth dilution method; assay type: functional; details: time 18-24 hrs
Staphylococcus aureus [17] = experiment: Antibacterial activity against methicillin/ceftriaxone/meropenem/gentamycin/vancomycin/teicoplanin resistant Staphylococcus aureus VRS 1 assessed as reduction in bacterial growth incubated for 18 to 24 hrs by broth dilution method; assay type: functional; details: time 18-24 hrs
Staphylococcus aureus [18] = experiment: Antibacterial activity against methicillin/ceftriaxone/meropenem/vancomycin/teicoplanin resistant Staphylococcus aureus VRS 4 assessed as reduction in bacterial growth incubated for 18 to 24 hrs by broth dilution method; assay type: functional; details: time 18-24 hrs
Staphylococcus aureus [19] = experiment: Antibacterial activity against methicillin/ceftriaxone/meropenem/vancomycin/teicoplanin resistant Staphylococcus aureus VRS 12 assessed as reduction in bacterial growth incubated for 18 to 24 hrs by broth dilution method; assay type: functional; details: time 18-24 hrs
Staphylococcus aureus [20] = experiment: Bacteriostatic activity against Staphylococcus aureus ATCC 29213 at 4 to 8 times MIC incubated for 2 to 24 hrs by time kill assay; assay type: functional, organism-based; details: time 2-24 hrs
[21] = target: DNA gyrase (Escherichia coli) (UniProt P0AES6+P0AES4); experiment: Inhibition of Escherichia coli DNA gyrase supercoiling activity assessed as reduction in linear DNA formation at 8 times MIC incubated for 90 mins; assay type: protein-complex assay
[22] = Metabolic stability in human liver microsome assessed as elimination rate constant at 1 uM preincubated for 5 mins followed by NADPH addition and measured after 60 mins by LC-MS/MS analysis; assay type: ADME; details: liver microsomes, time 65 min
[23] = Metabolic stability in human liver microsome assessed as half life at 1 uM preincubated for 5 mins followed by NADPH addition and measured after 60 mins by LC-MS/MS analysis; assay type: ADME; details: liver microsomes, time 65 min
[24] = Metabolic stability in human liver microsome assessed as intrinsic clearance at 1 uM preincubated for 5 mins followed by NADPH addition and measured after 60 mins by LC-MS/MS analysis; assay type: ADME; details: liver microsomes, time 65 min, read-out: CLH
[25] = Aqueous solubility of compound in phosphate buffer at pH 7.4 incubated for 16 hrs by HPLC analysis; assay type: physicochemical
Staphylococcus aureus [26] = experiment: Antibacterial activity against Staphylococcus aureus assessed as reduction in bacterial growth; assay type: functional
DNA gyrase = DNA gyrase (Escherichia coli, UniProt P0AES4+P0AES6); experiment: Inhibition of Escherichia coli DNA gyrase; assay type: protein-complex assay

With COc1cc(-c2ccn(-c3ccc(NC(=O)NCc4ccccc4)cc3)n2)cc(OC)c1OC the MIC (Staphylococcus aureus [1]) was greater than 64 mg/L, the MIC [2] was 0.5 mg/L (≈ 1.09 µM) and the MIC [3] was 0.5 mg/L (≈ 1.09 µM). The MIC (Mycobacteroides chelonae) was 1 mg/L (≈ 2.18 µM), the CC50 at 72 h [4] was less than 5 mg/L and the selectivity ratio [5] was less than 10.

Compound COc1ccc(-c2ccn(-c3ccc(NC(=O)Nc4ccc(Cl)c(Cl)c4)cc3)n2)cc1OC has an MIC (Staphylococcus aureus [1]) of 0.25 mg/L (≈ 0.517 µM), an MIC [2] of 32 mg/L (≈ 66.2 µM) and a CC50 at 72 h [4] of 10 mg/L (≈ 20.7 µM). The selectivity ratio [6] was 40, the MIC (Staphylococcus aureus [7]) was 0.25 mg/L (≈ 0.517 µM) and the MIC (Staphylococcus aureus [8]) was 0.25 mg/L (≈ 0.517 µM). The MIC (Staphylococcus aureus [9]) was 0.25 mg/L (≈ 0.517 µM), the MIC (Staphylococcus aureus [10]) was 0.25 mg/L (≈ 0.517 µM) and the MIC (Staphylococcus aureus [11]) was 0.25 mg/L (≈ 0.517 µM). For the same compound, the MIC (Staphylococcus aureus [12]) was 0.25 mg/L (≈ 0.517 µM), the MIC (Staphylococcus aureus [13]) was 0.25 mg/L (≈ 0.517 µM) and the MIC (Staphylococcus aureus [14]) was 0.25 mg/L (≈ 0.517 µM). For the same compound, the MIC (Staphylococcus aureus [15]) was 0.25 mg/L (≈ 0.517 µM), the MIC (Staphylococcus aureus [16]) was 0.25 mg/L (≈ 0.517 µM) and the MIC (Staphylococcus aureus [17]) was 0.25 mg/L (≈ 0.517 µM). The MIC (Staphylococcus aureus [18]) was 0.25 mg/L (≈ 0.517 µM), the MIC (Staphylococcus aureus [19]) was 0.25 mg/L (≈ 0.517 µM) and the Activity (Staphylococcus aureus [20]) was “Active”. The inhibition [21] was “Active”, the k el at 1 h, 1 µM [22] was 0.0001 s⁻¹ and the half-life at 1 µM [23] was 1.8 h. It also gave a microsomal CLint at 1 µM [24] of 12.4 µL/min/mg and a solubility at 16 h [25] of 5 µg/mL (≈ 10.3 µM).

Compound CCOC(=O)c1c(N)csc1-c1cn(-c2ccccc2)nc1-c1ccc(C)cc1 has an MIC (Staphylococcus aureus [26]) of 0.22 mg/L (≈ 0.545 µM) and an IC50 (DNA gyrase) of 12.3 µM.
